According to US11319452B2, “Vapor source using solutions of precursors in tertiary amines” (President and Fellows of Harvard College, priority 2013, dated 2022):
Each block holds one compound with its values, some of them ahead of it.

Assays:
marine organisms = conditions: cited from earlier work
chromosomes = conditions: reported in vitro; cited from earlier work
human = conditions: cited from earlier work
[1] = Solubility of amidinate precursors in dry, oxygen-free trialkylamine solvent; format: physicochemical; conditions: for solubility: in dry
Description: Another important criterion for solvents is that they dissolve a sufficient amount of precursor. Useful concentrations of the solutions are typically larger than 10 weight per cent, larger than 20 weight percent in more preferred embodiments, and larger than 40 weight percent in the most preferred embodiments.
Purification to remove oxygen, moisture and di-n-hexylamine was carried out as follows: 95 g of tri-n-hexylamine was mixed with 1 g of Na and heated to 100° C. under a N2 atmosphere for 3 hours. Then the purified tri-n-hexylamine was distilled out and stored in a glove box under a purified N2 atmosphere. A nickel precursor, bis(N,N′-di-tert-butylacetamidinato)nickel(II),
[drawing 6] was dissolved in the purified dry, oxygen-free tri-n-hexylamine.

[2] = Evaporation rate by isothermal thermogravimetric analysis (TGA); format: physicochemical
Text: DLE is a non-equilibrium evaporation process, because the vapor is swept away from the surface of the liquid before it can reach the equilibrium vapor pressure. The amount of liquid vaporized is thus determined by the evaporation rate. The rate of evaporation of a material can be measured using isothermal thermogravimetric analysis (TGA). In this method, a small sample (typically about 50 milligrams) of a material is held in the pan of a microbalance while a flow of a gas, such as nitrogen, passes over the surface of the material. As vapor leaves the surface of the material, its mass decreases and the microbalance measures the mass of the remaining un-evaporated material. […] The furnace temperature was increased from 110° C. to 115° C. during the time from 160 minutes to 162 minutes, at which time the temperature had stabilized at 115° C. The many mass values measured from 162 minutes until 175 minutes form a nearly continuous thick line in FIG. 1. […]
One class of precursors widely used for ALD and CVD are metal amidinates. One example is (N,N′-di-sec-butylacetamidinato)copper(I) dimer, whose evaporation rate was also measured by the same isothermal TGA method. […]

[3] = room temperature; cited from earlier work
[4] = in tri-n-hexylamine and in tri-n-heptylamine

solubility ([1]; oxygen-free tri-n-hexylamine): 42 weight percent
Compound: bis(N,N′-di-tert-butylacetamidinato)manganese(II)

solubility (in words) [1, 4]: high
Compound: tris(N,N′-diisopropylformamidinato)lanthanum(III)

solubility (in words) ([1]; in tri-n-hexylamine): high
Compound: bis(N,N′-diisopropylacetamidinato)tin(II)

solubility ([1]; oxygen-free tri-n-hexylamine): 8 weight percent
Compound: bis(N,N′-diisopropylpentamidinato)manganese(II)

solubility (in words) [1, 4]: high
Compound: tris(N,N′-diisopropylacetamidinato)yttrium(III)

solubility ([1]; oxygen-free tri-n-hexylamine): 22 weight percent
Compound: bis(N,N′-di-tert-butylacetamidinato)nickel(II)

solubility ([1]; oxygen-free tri-n-hexylamine and in tri-n-heptylamine): about 30 weight percent
evaporation rate ([2]; 160° C.=433 K, read from FIG. 2, neat precursor into 1 atmosphere nitrogen): about 0.8 mg cm^−2 min^−1
Compound: bis(N,N′-di-sec-butylacetamidinato)copper(I) dimer

Continued, compound first:

Compound: Cc1cccc2ccccc12 [1-methylnaphthalene]
toxicity to marine organisms (marine organisms): highly toxic
chromosome damage in vitro (chromosomes): cause damage to chromosomes
effect of repeated human exposure (human): causes sensitization

Compound: bis(N,N′-diisopropylacetamidinato)cobalt(II)
solubility (in words) ([1]; in tri-n-hexylamine): high

Compound: bis(N,N′-di-tert-butylacetamidinato)ruthenium(II)tricarbonyl
solubility (in words) [1, 4]: moderate

Compound: CCCCCCCCCCCC [Dodecane, n-dodecane]
vapor pressure [3]: around 120 mTorr

Compound: CCCCCCN(CCCCCC)CCCCCC [tri-n-hexylamine]
evaporation rate ([2]; 115° C., flow of nitrogen gas at one atmosphere): 0.346 mg min^−1 cm^−2
